Measurements published in article PMC4254016 (Bioorganic & medicinal chemistry, 2014).

Legend:
PchB = conditions: read-out: Ki PchB; cited from earlier work
ΔpvdA PAO1 = type: cell-based, Pseudomonas aeruginosa; conditions: high iron (200 µM FeCl3), 24 hrs
ΔpchE PAO1 = type: cell-based, Pseudomonas aeruginosa; conditions: high iron (200 µM FeCl3), 24 hrs
salicylate synthase Irp9 = salicylate synthase Irp9 (Yersinia enterocolitica, UniProt Q9X9I8); type: biochemical
chorismate mutase EcCM = chorismate mutase EcCM (Escherichia coli, UniProt P0A9J8); type: biochemical, E. coli
[1] = biological target: isochorismate-pyruvate lyase PchB (Pseudomonas aeruginosa, UniProt Q51507); type: biochemical
P. aeruginosa PAO1 = assay: Bacterial growth inhibition, wildtype PAO1; type: cell-based, Pseudomonas aeruginosa; conditions: high iron (200 µM FeCl3), 24 hrs

Sequence of salicylate synthase Irp9 (Q9X9I8 1-434): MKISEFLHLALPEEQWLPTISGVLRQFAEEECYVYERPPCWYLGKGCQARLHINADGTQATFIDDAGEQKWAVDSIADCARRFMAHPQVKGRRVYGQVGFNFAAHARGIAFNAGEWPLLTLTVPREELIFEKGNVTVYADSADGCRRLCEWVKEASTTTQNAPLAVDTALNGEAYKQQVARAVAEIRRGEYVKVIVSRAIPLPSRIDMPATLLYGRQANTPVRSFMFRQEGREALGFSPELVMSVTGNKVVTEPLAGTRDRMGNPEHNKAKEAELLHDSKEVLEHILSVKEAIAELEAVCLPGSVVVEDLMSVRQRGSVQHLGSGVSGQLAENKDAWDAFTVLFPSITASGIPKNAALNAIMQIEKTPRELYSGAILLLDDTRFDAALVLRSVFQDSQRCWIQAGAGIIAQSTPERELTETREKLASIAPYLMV
Sequence of chorismate mutase EcCM (P0A9J8 1-92): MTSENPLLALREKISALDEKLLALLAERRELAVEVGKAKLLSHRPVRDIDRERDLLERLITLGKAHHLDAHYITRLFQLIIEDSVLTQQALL
Sequence of isochorismate-pyruvate lyase PchB (Q51507 whole entry): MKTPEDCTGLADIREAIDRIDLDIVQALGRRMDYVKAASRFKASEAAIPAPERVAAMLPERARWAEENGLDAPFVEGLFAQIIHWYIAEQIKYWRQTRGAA

| Structure (SMILES) | Ki (PchB) [mM] | EC50 growth inhibition ΔpvdA p.a. (ΔpvdA PAO1) | EC50 growth inhibition ΔpchE p.a. (ΔpchE PAO1) | mode of inhibition of Irp9 (salicylate synthase Irp9) | mode of inhibition of EcCM (chorismate mutase EcCM) | mode of inhibition of PchB [1] | EC50 growth inhibition PAO1 p.a. (P. aeruginosa PAO1) |
| --- | --- | --- | --- | --- | --- | --- | --- |
| O=P(O)(O)C12CC3CC(CC(C3)C1)C2 [adamantane-1-phosphonate] | > 5 |  |  |  |  |  |  |
| COC(=O)Oc1c([N+](=O)[O-])cc2oc(=O)sc2c1[N+](=O)[O-] [Compound 10] |  | did not cause growth inhibition | did not cause growth inhibition | competitive inhibitor | competitive inhibitors | competitive inhibitors | did not cause growth inhibition |
